Patent publication US5256788A, “Moranoline derivatives and their production and the use of moranoline and its derivatives as a stabilizing agent for enzymes” (Nippon Shinyaku Co. Ltd., priority 1989, dated 1993)

Molecular target: T1, immobilized CGTase (Geobacillus stearothermophilus, UniProt P31797)
T1 construct: purchased Hayashibara Biochemical Research Institute
T1 sequence (P31797 32-711): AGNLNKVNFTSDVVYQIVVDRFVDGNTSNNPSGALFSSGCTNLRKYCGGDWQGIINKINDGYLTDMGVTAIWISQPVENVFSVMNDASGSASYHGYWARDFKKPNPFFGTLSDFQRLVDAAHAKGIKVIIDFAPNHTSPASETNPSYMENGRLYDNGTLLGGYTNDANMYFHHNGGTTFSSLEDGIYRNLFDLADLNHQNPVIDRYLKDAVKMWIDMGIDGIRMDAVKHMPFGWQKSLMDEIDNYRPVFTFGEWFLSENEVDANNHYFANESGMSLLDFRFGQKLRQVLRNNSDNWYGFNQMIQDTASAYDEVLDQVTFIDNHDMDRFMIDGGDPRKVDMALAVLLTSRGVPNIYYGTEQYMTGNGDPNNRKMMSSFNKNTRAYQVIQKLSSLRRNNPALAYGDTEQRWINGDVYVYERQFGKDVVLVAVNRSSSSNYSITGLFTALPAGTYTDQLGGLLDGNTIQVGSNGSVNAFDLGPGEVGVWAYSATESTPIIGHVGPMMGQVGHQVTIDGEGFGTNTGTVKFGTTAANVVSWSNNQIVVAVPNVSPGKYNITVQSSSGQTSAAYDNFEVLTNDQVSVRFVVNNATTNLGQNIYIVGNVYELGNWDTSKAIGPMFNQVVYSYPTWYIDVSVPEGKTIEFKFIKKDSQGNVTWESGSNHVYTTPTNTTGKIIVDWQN
Assay: Stabilization of immobilized CGTase in sugar transfer reaction solution of moranoline (enzyme activity retention rate)
Format: biochemical, Bacillus stearothermophilus
Details: 2.5 w/v% moranoline and 25 w/v% Amicol No. 6L
Method: (§1) The immobilized CGTase, 10 ml, obtained in Reference Example 1 was added to 100 ml of aqueous solution with the pH being not adjusted containing 2.5 w/v% of moranoline and 25 w/v% of Amicol No. 6L [manufactured by Nichiden Chemical Co., Ltd.] followed by rotary shaking at 55° C. Thereafter, beads formed and (after a definite period of time as illustrated below) the beads (immobilized CGTase) were filtered through a glass filter. After thoroughly washing with water, the enzyme activity of the immobilized CGTase was determined as follows.
(§2) The beads (washed immobilized CGTase after a definite period of time at 55° C.), 1 ml, was added to 10 ml of aqueous solution with the pH being not adjusted containing 2.5 w/v% of moranoline and 25 w/v% of Amicol No. 6L followed by reacting at 55° C. for 24 hours. The reaction solution 3 ml, was passed through 7 ml of strongly acidic ion exchange resin DOWEX 50W×2 (H ). After thoroughly washing with water, elution was performed with 0.5N ammonia water. The eluate was concentrated to dryness under reduced pressure and the residue was dissolved in 3 ml of water. 10 μl of the solution was applied to and analyzed by high performance liquid chromatography to determine a concentration of the unreacted moranoline. The analytical conditions for high performance liquid chromatography were as follows: column (Nucleosil 5NH2, 5 μm, 4 mm i.d.×25 cm), developing solvent acetonitrile-water=70:30), detector (Hitachi 655A-30, RI detector), data processor (Hitachi D-2000). [formula]
Where the reaction progress rate was made 100 when rotary shaking started at 55° C., a relative reaction progress rate after a definite period of time passed was calculated according to the above equation. The thus obtained value was made an enzyme activity retention rate. The fact that the enzyme activity of the immobilized CGTase was stabilized by the moranoline in accordance with the present invention is clearly shown.
as §1, with “Example A” for “Example 1”, “C. After” for “C. Thereafter, beads formed and (after”, “time passed,” for “time as illustrated below)”, “follows. (Method for determination of enzyme activity of immobilized CGTase)” for “follows.”
as §2, with “24 hours” for “24 hours.”, “reaction liquid,” for “reaction solution”, “DOWEX 50W X 2 (H+).” for “DOWEX 50W×2 (H ).”, “mm i.d. X 25” for “mm i.d.×25”
Where the reaction progress rate was made 100 when rotary shaking started at 55° C., a relative reaction progress rate after a definite period of time passed was calculated according to the above equation. The thus obtained value was made an enzyme activity retention rate.

SMILES: OC[C@H]1NC[C@H](O)[C@@H](O)[C@@H]1O [moranoline]
- activity at 25000 µg/mL (0 h, day 0, 55° C., start made 100): 100%
- activity at 25000 µg/mL (336 h, day 14, 55° C.): 100%
- activity at 25000 µg/mL (504 h, day 21, 55° C.): 103%
- activity at 25000 µg/mL (672 h, day 28, 55° C.): 102%
- activity at 25000 µg/mL (888 h, day 37, 55° C.): 101%
- activity at 25000 µg/mL (1272 h, day 53, 55° C.): 102%
- activity at 25000 µg/mL (1560 h, day 65, 55° C.): 104%
- activity at 25000 µg/mL (1872 h, day 78, 55° C.): 101%
- activity at 25000 µg/mL (2232 h, day 93, 55° C.): 99.7%
- activity at 25000 µg/mL (2400 h, day 100, 55° C.): 100%
- activity at 25000 µg/mL (2856 h, day 119, 55° C.): 97%
- activity at 25000 µg/mL (3360 h, day 140, 55° C.): 100%
- activity at 25000 µg/mL (3912 h, day 163, 55° C.): 99.3%
- activity at 25000 µg/mL (4272 h, day 178, 55° C.): 98.4%
- activity at 25000 µg/mL (4752 h, day 198, 55° C.): 92.5%
- activity at 25000 µg/mL (5040 h, day 210, 55° C.): 95.6%
- activity at 25000 µg/mL (5544 h, day 231, 55° C.): 92.5%
- activity at 25000 µg/mL (5904 h, day 246, 55° C.): 93%
- activity at 25000 µg/mL (6288 h, day 262, 55° C.): 92.3%
- activity at 25000 µg/mL (6576 h, day 274, 55° C.): 92.5%
- activity at 25000 µg/mL (6912 h, day 288, 55° C.): 91.7%
- activity at 25000 µg/mL (7248 h, day 302, 55° C.): 92%
- activity at 25000 µg/mL (7728 h, day 322, 55° C.): 92.7%
- activity at 25000 µg/mL (8136 h, day 339, 55° C.): 91.5%
- activity at 25000 µg/mL (8472 h, day 353, 55° C.): 93.9%
- activity at 25000 µg/mL (8784 h, day 366, 55° C.): 90%
- activity at 25000 µg/mL (9912 h, day 413, 55° C.): 90%
